Results from article PMC2263054, “Functional evolution of the vitamin D and pregnane X receptors” (BMC Evolutionary Biology, 2007).
Where a name gives a salt, the structure may show the parent alone. Read-outs that look alike come from different tables or passages of the source.

Tests used:
Assay type in all cases: cell-based
Xenopus laevis VDR = molecular target: T1, Xenopus laevis VDR (Xenopus laevis, UniProt O13124); assay: luciferase reporter transactivation assay in HepG2-NTCP cells, GAL4/xlVDR LBD chimera with tk-UAS-Luc; settings: screening for activators, at least three concentrations of each drug
T1 sequence (O13124 90-422): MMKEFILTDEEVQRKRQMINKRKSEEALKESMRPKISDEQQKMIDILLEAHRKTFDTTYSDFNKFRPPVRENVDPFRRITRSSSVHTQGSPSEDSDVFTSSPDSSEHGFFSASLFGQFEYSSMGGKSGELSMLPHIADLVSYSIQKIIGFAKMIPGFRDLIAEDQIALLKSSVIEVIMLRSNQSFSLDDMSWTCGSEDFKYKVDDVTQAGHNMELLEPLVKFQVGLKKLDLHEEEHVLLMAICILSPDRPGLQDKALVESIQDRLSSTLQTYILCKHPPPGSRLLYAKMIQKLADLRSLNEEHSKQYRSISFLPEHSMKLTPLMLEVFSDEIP

Sea lamprey VDR = molecular target: T2, Sea lamprey VDR (Petromyzon marinus, UniProt Q7ZZY9)
T2 sequence (Q7ZZY9 92-406): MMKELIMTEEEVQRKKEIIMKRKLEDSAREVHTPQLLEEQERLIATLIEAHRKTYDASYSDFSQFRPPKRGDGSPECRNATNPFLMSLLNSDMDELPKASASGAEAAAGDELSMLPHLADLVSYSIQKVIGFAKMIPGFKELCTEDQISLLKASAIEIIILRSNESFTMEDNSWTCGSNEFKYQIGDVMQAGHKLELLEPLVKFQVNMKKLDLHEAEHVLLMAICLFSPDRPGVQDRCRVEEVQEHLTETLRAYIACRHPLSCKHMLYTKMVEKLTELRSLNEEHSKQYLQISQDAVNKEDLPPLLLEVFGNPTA

Zebrafish VDR = molecular target: T3, Zebrafish VDR (Danio rerio, UniProt Q9PTN2); assay: luciferase reporter transactivation assay in HepG2-NTCP cells, GAL4/zfVDR LBD chimera with tk-UAS-Luc; settings: screening for activators, at least three concentrations of each drug
T3 sequence (Q9PTN2 121-453): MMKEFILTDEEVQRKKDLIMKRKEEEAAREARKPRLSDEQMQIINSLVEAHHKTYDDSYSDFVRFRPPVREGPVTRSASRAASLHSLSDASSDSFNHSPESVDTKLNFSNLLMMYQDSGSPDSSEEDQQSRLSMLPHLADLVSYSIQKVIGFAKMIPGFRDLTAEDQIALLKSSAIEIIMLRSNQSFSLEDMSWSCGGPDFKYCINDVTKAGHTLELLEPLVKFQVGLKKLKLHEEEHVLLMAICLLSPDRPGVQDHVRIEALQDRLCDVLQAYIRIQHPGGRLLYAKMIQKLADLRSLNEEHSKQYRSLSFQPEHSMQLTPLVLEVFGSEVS

[1] = screening for activators, at least three concentrations of each drug

Row | SMILES | Effect on Xenopus laevis VDR (Xenopus laevis VDR) | Effect on sea lamprey VDR (Sea lamprey VDR; [1]) | Effect on zebrafish VDR (Zebrafish VDR) | Effect on sea lamprey VDR (Sea lamprey VDR) | Effect on Xenopus laevis VDR (Xenopus laevis VDR; listed as 17β-estradiol) | Effect on sea lamprey VDR (Sea lamprey VDR; screening for activators, at least three concentrations of each drug, listed as 17β-estradiol) | Effect on zebrafish VDR (Zebrafish VDR; listed as 17β-estradiol)
1 | C[C@]12CC[C@@H](O)C[C@H]1CC[C@@H]1[C@@H]2C(=O)C[C@]2(C)C(=O)CC[C@@H]12 [5b-Androstan-3a-ol-11,17-one] | No effect | No effect | No effect |  |  |  | 
2 | C[C@@]12CCC[C@H]1[C@@H]1CC[C@@H]3C[C@@H](O)CC[C@]3(C)[C@H]1CC2 [5b-Androstan-3b-ol] | No effect | No effect | No effect |  |  |  | 
3 | C[C@H](CCCO)[C@H]1CC[C@H]2[C@@H]3[C@H](O)C[C@@H]4C[C@H](O)CC[C@]4(C)[C@H]3C[C@H](O)[C@]12C [5b-Cholan-3a,7a,12a,24-tetrol] | No effect | No effect | No effect |  |  |  | 
4 | CCC[C@@H](C)[C@H]1CC[C@H]2[C@@H]3[C@H](O)C[C@@H]4C[C@H](O)CC[C@]4(C)[C@H]3C[C@H](O)[C@]12C [5b-Cholan-3a,7a,12a-triol] | No effect | No effect | No effect |  |  |  | 
5 | C[C@H](CCC(=O)O)[C@H]1CC[C@H]2[C@@H]3C[C@H](O)[C@@H]4C[C@H](O)CC[C@]4(C)[C@H]3CC[C@]12C [5b-Cholanic acid-3a,6a-diol] | No effect |  | No effect | No effect |  |  | 
6 | C[C@H](CCC(=O)O)[C@H]1CC[C@H]2[C@@H]3C[C@@H](O)[C@@H]4C[C@H](O)CC[C@]4(C)[C@H]3CC[C@]12C [5b-Cholanic acid-3a,6b-diol] | No effect |  | No effect | No effect |  |  | 
7 | CC(=O)[C@H]1CC[C@H]2[C@@H]3CC[C@@H]4CC(=O)CC[C@]4(C)[C@H]3CC[C@]12C [5b-Pregnan-3,20-dione] | No effect | No effect | No effect |  |  |  | 
8 | C[C@H](O)[C@H]1CC[C@H]2[C@@H]3CC[C@@H]4C[C@H](O)CC[C@]4(C)[C@H]3CC[C@]12C [5b-Pregnan-3a,20a-diol] | No effect | No effect | No effect |  |  |  | 
9 | C[C@@H](O)[C@H]1CC[C@H]2[C@@H]3CC[C@@H]4C[C@H](O)CC[C@]4(C)[C@H]3CC[C@]12C [5b-Pregnan-3a,20b,diol] | No effect | No effect | No effect |  |  |  | 
10 | CC(=O)[C@H]1CC[C@H]2[C@@H]3CC[C@@H]4C[C@H](O)CC[C@]4(C)[C@H]3CC[C@]12C [5b-Pregnan-3a-ol-20-one] | No effect | No effect | No effect |  |  |  | 
11 | CC(C)CCC[C@@H](C)[C@H]1CC[C@H]2[C@@H]3CC[C@@H]4C[C@H](OS(=O)(=O)O)CC[C@]4(C)[C@H]3CC[C@]12C [5b-cholestan-3a-ol sulfate] | No effect | No effect | No effect |  |  |  | 
12 | CC(=O)[C@H]1CC[C@H]2[C@@H]3CC[C@@H]4C[C@H](OS(=O)(=O)O)CC[C@]4(C)[C@H]3CC[C@]12C [5b-pregnan-3a-ol-20-one sulfate] | No effect | No effect | No effect |  |  |  | 
13 | C[C@]12CC[C@H]3[C@@H](C[C@H](F)C4=CC(=O)CC[C@@]43C)[C@@H]1CC[C@@H]2O [6a-Fluorotestosterone] | No effect | No effect | No effect |  |  |  | 
14 | C[C@H](CCC(=O)O)[C@H]1CC[C@H]2[C@@H]3C(=O)C[C@@H]4C[C@H](O)CC[C@]4(C)[C@H]3CC(=O)[C@]12C [7,12-Diketolithocholic acid] | No effect | No effect | No effect |  |  |  | 
15 | C[C@H](CCC(=O)O)[C@H]1CC[C@H]2[C@@H]3C(=O)C[C@@H]4C[C@H](O)CC[C@]4(C)[C@H]3C[C@H](O)[C@]12C [7-Ketodeoxycholic acid] | No effect | No effect | No effect |  |  |  | 
16 | C[C@H](CCC(=O)O)[C@H]1CC[C@H]2[C@@H]3C(=O)C[C@@H]4C[C@H](O)CC[C@]4(C)[C@H]3CC[C@]12C [7-Ketolithocholic acid] | No effect | No effect | No effect |  |  |  | 

Row | SMILES | Effect on Xenopus laevis VDR (Xenopus laevis VDR) | Effect on sea lamprey VDR (Sea lamprey VDR; [1]) | Effect on zebrafish VDR (Zebrafish VDR) | Effect on sea lamprey VDR (Sea lamprey VDR) | Effect on Xenopus laevis VDR (Xenopus laevis VDR; listed as 17β-estradiol) | Effect on sea lamprey VDR (Sea lamprey VDR; screening for activators, at least three concentrations of each drug, listed as 17β-estradiol) | Effect on zebrafish VDR (Zebrafish VDR; listed as 17β-estradiol)
17 | CC1=C(/C=C/C(C)=C\C=C\C(C)=C\C(=O)O)C(C)(C)CCC1 [9-cis Retinoic acid] | No effect | No effect | No effect |  |  |  | 
18 | C[C@H](CCC(=O)O)[C@H]1CC[C@H]2[C@@H]3CC[C@@H]4C[C@H](O)CC[C@]4(C)[C@H]3CC(=O)[C@]12C [12-Ketolithocholic acid] | No effect | No effect | No effect |  |  |  | 
19 | CCCCC[C@H](O)/C=C/C=C\CCCCCCCC(=O)O [13(S)-Hydroxy-9Z,11E-octadecadienoic acid] | No effect | No effect | No effect |  |  |  | 
20 | CC1=C(/C=C/C(C)=C/C=C/C(C)=C\C(=O)O)C(C)(C)CCC1 [13-cis Retinoic acid] | No effect | No effect | No effect |  |  |  | 
21 | CC1=C(/C=C/C(C)=C/C=C/C(C)=C\CO)C(C)(C)CCC1 [13-cis-Retinol] | No effect | No effect | No effect |  |  |  | 
22 | CCCCC/C=C/C=C1/C(=O)C=C[C@@H]1C/C=C\CCCC(=O)O [15-Deoxy-D12,14-prostaglandin J2] | No effect | No effect | No effect |  |  |  | 
23 | C[C@]12CCC(=O)C[C@@H]1CC[C@@H]1[C@@H]2CC[C@]2(C)C=CC[C@@H]12 [16,(5a)-Androsten-3-one] | No effect | No effect | No effect |  |  |  | 
24 | C[C@]12CC[C@H](O)C[C@@H]1CC[C@@H]1[C@@H]2CC[C@]2(C)C=CC[C@@H]12 [16,(5a)-Androsten-3b-ol] | No effect | No effect | No effect |  |  |  | 
25 | C[C@]12CC[C@@H]3c4ccc(O)cc4CC[C@H]3[C@@H]1C[C@@H](O)C2=O [16a-Hydroxyestrone] | No effect | No effect | No effect |  |  |  | 
26 | CC(=O)[C@@]1(O)CC[C@H]2[C@@H]3CC=C4C[C@@H](O)CC[C@]4(C)[C@H]3CC[C@@]21C [17-Hydroxypregnenolone] | No effect | No effect | No effect |  |  |  | 
27 | C[C@]12CC[C@@H]3c4ccc(O)cc4CC[C@H]3[C@@H]1CC[C@@H]2O [17b-Estradiol, 17β-estradiol] | No effect | No effect | No effect |  | None of these three VDRs were activated | None of these three VDRs were activated | None of these three VDRs were activated
28 | C[C@H](CC(=O)O)[C@H]1CC[C@H]2[C@@H]3CC[C@@H]4C[C@H](O)CC[C@]4(C)[C@H]3C[C@H](O)[C@]12C [23-Nordeoxycholic acid] | No effect | No effect | No effect |  |  |  | 
29 | C[C@H](CC[C@@H]1OC1(C)C)[C@H]1CC[C@H]2[C@@H]3CC=C4C[C@@H](O)CC[C@]4(C)[C@H]3CC[C@]12C [24(S)-,25-Epoxycholesterol] | No effect | No effect | No effect |  |  |  | 
30 | CC(C)[C@@H](O)CC[C@@H](C)[C@H]1CC[C@H]2[C@@H]3CC=C4C[C@@H](O)CC[C@]4(C)[C@H]3CC[C@]12C [24(S)-Hydroxycholesterol] | No effect | No effect | No effect |  |  |  | 
31 | CC(=O)N[C@@H](CSC/C=C(\C)CC/C=C(\C)CCC=C(C)C)C(=O)O [Acetyl-farnesyl-cysteine] | No effect | No effect | No effect |  |  |  | 
